Our source for the melting point values is US6380178B1, “Cyclic regimens using cyclocarbamate and cyclic amide derivatives” (American Home Products Corporation, priority 1999, dated 2002).

As usually defined, the melting point is the temperature, or range, at which the solid turns liquid.

In turn, `CC1(C)OC(=O)Nc2sc(-c3cccc(Cl)c3)cc21` [Example 1, 6-(3-chlorophenyl)-1,4-dihydro-4,4-dimethyl-2H-thieno[2,3-d][1,3]oxazine-2-one] had a melting point of 149 to 150 °C. Take `CC1(C)OC(=O)Nc2cc(-c3cccc(Cl)c3)sc21` [Example 2, 6-(3-chlorophenyl)-1,4-dihydro-4,4-dimethyl-2H-thieno[3,2-d][1,3]oxazine-2-one]: the melting point was 123 to 125 °C.
